Measurements taken from ChEMBL document CHEMBL3351952, “The antimicrobial activity of mono-, bis-, tris-, and tetracationic amphiphiles derived from simple polyamine platforms” (2014).

Tests used:
Format in all cases: functional
Staphylococcus aureus = test: Antimicrobial activity against Staphylococcus aureus SH1000 after 72 hrs by broth microdilution method; details: SH1000, 72 h
Enterococcus faecalis = test: Antimicrobial activity against Enterococcus faecalis OG1RF after 72 hrs by broth microdilution method
Escherichia coli = test: Antimicrobial activity against Escherichia coli MC4100 after 72 hrs by broth microdilution method; details: MC4100, 72 h
Pseudomonas aeruginosa = test: Antimicrobial activity against wild-type Pseudomonas aeruginosa PAO1 after 72 hrs by broth microdilution method; details: PAO1, 72 h

CCCCCCCCCC[N+](C)(C)CC[N+](C)(C)CC[N+](C)(C)CCCCCCCCCC
MIC (Staphylococcus aureus): 2 µM
MIC (Enterococcus faecalis): 8 µM
MIC (Escherichia coli): 8 µM
MIC (Pseudomonas aeruginosa): 63 µM

C=CC[N+](C)(CC[N+](C)(C)CCCCCCCCCCCC)CC[N+](C)(C)CCCCCCCCCCCC
MIC (Staphylococcus aureus): 2 µM
MIC (Enterococcus faecalis): 2 µM
MIC (Escherichia coli): 2 µM
MIC (Pseudomonas aeruginosa): 4 µM

CCCCCCCCCCCC[N+](C)(C)CC[N+](C)(C)CC[N+](C)(C)CCCCCCCCCCCC
MIC (Staphylococcus aureus): ≤ 60.2 µM
MIC (Enterococcus faecalis): ≤ 60.2 µM
MIC (Escherichia coli): 0.5 µM
MIC (Pseudomonas aeruginosa): 1 µM

CCCCCCCCCCCC[N+](C)(C)CCC[N+](C)(CCCCCCCCCCCC)CCC[N+](C)(C)CCCCCCCCCCCC
MIC (Staphylococcus aureus): 0.5 µM
MIC (Enterococcus faecalis): 1 µM
MIC (Escherichia coli): 1 µM
MIC (Pseudomonas aeruginosa): 4 µM

CCCCCCCCCCCC[N+](C)(C)CCC[N+](C)(CCC[N+](C)(C)CCCCCCCCCCCC)Cc1ccc(CCCCCCCC)cc1
MIC (Staphylococcus aureus): 1 µM
MIC (Enterococcus faecalis): 1 µM
MIC (Escherichia coli): 1 µM
MIC (Pseudomonas aeruginosa): 4 µM

CCCCCCCCCCCC[N+](C)(C)CCCCC[N+](C)(C)CCCCCCCCCCCC
MIC (Staphylococcus aureus): 2 µM
MIC (Enterococcus faecalis): 1 µM
MIC (Escherichia coli): 1 µM
MIC (Pseudomonas aeruginosa): 2 µM

CCCCCCCCCCCC[N+](C)(C)CCC[N+](C)(C)CCC[N+](C)(C)CCCCCCCCCCCC
MIC (Staphylococcus aureus): 1 µM
MIC (Enterococcus faecalis): 2 µM
MIC (Escherichia coli): 2 µM
MIC (Pseudomonas aeruginosa): 8 µM

CCCCCCCCCC[N+](C)(C)CCN(C)CC[N+](C)(C)CCCCCCCCCC
MIC (Staphylococcus aureus): 2 µM
MIC (Enterococcus faecalis): 8 µM
MIC (Escherichia coli): 8 µM
MIC (Pseudomonas aeruginosa): 63 µM

CCCCCCCCCCCC[N+](C)(C)CCN(C)CC[N+](C)(C)CCCCCCCCCCCC
MIC (Staphylococcus aureus): 1 µM
MIC (Enterococcus faecalis): 1 µM
MIC (Escherichia coli): 2 µM
MIC (Pseudomonas aeruginosa): 4 µM

CCCCCCCCCCCC[N+](C)(C)CCCCCCC[N+](C)(C)CCCCCCCCCCCC
MIC (Staphylococcus aureus): 1 µM
MIC (Enterococcus faecalis): 1 µM
MIC (Escherichia coli): 2 µM
MIC (Pseudomonas aeruginosa): 8 µM

CCCCCCCCCCCCCC[N+](C)(C)CCN(C)CCN(C)CCN(C)C
MIC (Staphylococcus aureus): 16 µM
MIC (Enterococcus faecalis): 16 µM
MIC (Escherichia coli): 32 µM
MIC (Pseudomonas aeruginosa): 125 µM

C=CC[N+](C)(CC[N+](C)(C)CCCCCCCCCC)CC[N+](C)(C)CCCCCCCCCC
MIC (Staphylococcus aureus): 2 µM
MIC (Enterococcus faecalis): 4 µM
MIC (Escherichia coli): 2 µM
MIC (Pseudomonas aeruginosa): 63 µM

CCCCCCCCCCC[N+](C)(C)CC[N+](C)(C)CC[N+](C)(C)CCCCCCCCCCC
MIC (Staphylococcus aureus): 2 µM
MIC (Enterococcus faecalis): 2 µM
MIC (Escherichia coli): 4 µM
MIC (Pseudomonas aeruginosa): 8 µM

C=CC[N+](C)(CCC[N+](C)(C)CCCCCCCCCCCC)CCC[N+](C)(C)CCCCCCCCCCCC
MIC (Staphylococcus aureus): 1 µM
MIC (Enterococcus faecalis): 2 µM
MIC (Escherichia coli): 2 µM
MIC (Pseudomonas aeruginosa): 4 µM

CCCCCCCCCCCC[N+](C)(C)CCC[N+](C)(CCC[N+](C)(C)CCCCCCCCCCCC)Cc1ccccc1
MIC (Staphylococcus aureus): 1 µM
MIC (Enterococcus faecalis): 1 µM
MIC (Escherichia coli): 1 µM
MIC (Pseudomonas aeruginosa): 2 µM

CCCCCCCCCCCCCCCC[N+](C)(C)CCCCC[N+](C)(C)CCCCCCCCCCCCCCCC
MIC (Staphylococcus aureus): 2 µM
MIC (Enterococcus faecalis): 2 µM
MIC (Escherichia coli): 16 µM
MIC (Pseudomonas aeruginosa): 32 µM

CCCCCCCCCCCCCC[N+](C)(C)CCN(C)CCN(C)CC[N+](C)(C)CCCCCCCCCCCC
MIC (Staphylococcus aureus): 1 µM
MIC (Enterococcus faecalis): 1 µM
MIC (Escherichia coli): 2 µM
MIC (Pseudomonas aeruginosa): 8 µM

CCCCCCCCCCCC[N+](C)(C)CCC[N+](C)(CCCC)CCC[N+](C)(C)CCCCCCCCCCCC
MIC (Staphylococcus aureus): 1 µM
MIC (Enterococcus faecalis): 1 µM
MIC (Escherichia coli): 1 µM
MIC (Pseudomonas aeruginosa): 2 µM

CCCCCCCCCCCCCC[N+](C)(C)CC[N+](C)(C)CC[N+](C)(C)CCCCCCCCCCCCCC
MIC (Staphylococcus aureus): 1 µM
MIC (Enterococcus faecalis): 1 µM
MIC (Escherichia coli): 2 µM
MIC (Pseudomonas aeruginosa): 8 µM

CCCCCCCCCCC[N+](C)(C)CCN(C)CC[N+](C)(C)CCCCCCCCCCC
MIC (Staphylococcus aureus): 2 µM
MIC (Enterococcus faecalis): 2 µM
MIC (Escherichia coli): 2 µM
MIC (Pseudomonas aeruginosa): 8 µM

C=CC[N+](C)(CC[N+](C)(C)CCCCCCCCCCCCCCCC)CC[N+](C)(C)CCCCCCCCCCCCCCCC
MIC (Staphylococcus aureus): 4 µM
MIC (Enterococcus faecalis): 4 µM
MIC (Escherichia coli): 8 µM
MIC (Pseudomonas aeruginosa): 16 µM

CCCCCCCCCCCCCC[N+](C)(C)CCN(C)CCN(C)CC[N+](C)(C)CCCCCCCCCCCCCC
MIC (Staphylococcus aureus): 2 µM
MIC (Enterococcus faecalis): 1 µM
MIC (Escherichia coli): 2 µM
MIC (Pseudomonas aeruginosa): 16 µM

C=CC[N+](C)(CC[N+](C)(C)CCCCCCCCCCCC)CC[N+](C)(CC=C)CC[N+](C)(C)CCCCCCCCCCCC (configuration not stated)
MIC (Staphylococcus aureus): 1 µM
MIC (Enterococcus faecalis): 1 µM
MIC (Escherichia coli): 1 µM
MIC (Pseudomonas aeruginosa): 2 µM

CCCCCCCCCCCC[N+](C)(C)CCCN(C)CCC[N+](C)(C)CCCCCCCCCCCC
MIC (Staphylococcus aureus): 1 µM
MIC (Enterococcus faecalis): 2 µM
MIC (Escherichia coli): 1 µM
MIC (Pseudomonas aeruginosa): 4 µM

CCCCCCCCCCCCCC[N+](C)(C)CCCCC[N+](C)(C)CCCCCCCCCCCCCC
MIC (Staphylococcus aureus): 1 µM
MIC (Enterococcus faecalis): 1 µM
MIC (Escherichia coli): 4 µM
MIC (Pseudomonas aeruginosa): 16 µM

CCCCCCCCCCCC[N+](C)(C)CCN(C)CCN(C)CCN(C)C
MIC (Staphylococcus aureus): 8 µM
MIC (Enterococcus faecalis): 8 µM
MIC (Escherichia coli): 8 µM
MIC (Pseudomonas aeruginosa): 32 µM

C=CC[N+](C)(CC[N+](C)(C)CCCCCCCCCCCCCC)CC[N+](C)(C)CCCCCCCCCCCCCC
MIC (Staphylococcus aureus): 2 µM
MIC (Enterococcus faecalis): 2 µM
MIC (Escherichia coli): 2 µM
MIC (Pseudomonas aeruginosa): 8 µM

CCCCCCCCCCCCCCCC[N+](C)(C)CCN(C)CC[N+](C)(C)CCCCCCCCCCCCCCCC
MIC (Staphylococcus aureus): 4 µM
MIC (Enterococcus faecalis): 2 µM
MIC (Escherichia coli): 16 µM
MIC (Pseudomonas aeruginosa): 32 µM

CCCCCCCCCCCCCC[N+](C)(C)CCN(C)CC[N+](C)(C)CCCCCCCCCCCCCC
MIC (Staphylococcus aureus): 2 µM
MIC (Enterococcus faecalis): 1 µM
MIC (Escherichia coli): 4 µM
MIC (Pseudomonas aeruginosa): 16 µM

C=CC[N+](C)(CC[N+](C)(C)CCCCCCCCCCC)CC[N+](C)(C)CCCCCCCCCCC
MIC (Staphylococcus aureus): 1 µM
MIC (Enterococcus faecalis): 2 µM
MIC (Escherichia coli): 2 µM
MIC (Pseudomonas aeruginosa): 16 µM

CCCCCCCCCCCC[N+](C)(C)CCN(C)CCN(C)CC[N+](C)(C)CCCCCCCCCCCC
MIC (Staphylococcus aureus): 1 µM
MIC (Enterococcus faecalis): 1 µM
MIC (Escherichia coli): 1 µM
MIC (Pseudomonas aeruginosa): 4 µM

CCCCCCCCCCCC[N+](C)(C)Cc1ccccc1 [BENZODODECINIUM CHLORIDE]
MIC (Staphylococcus aureus): 8 µM
MIC (Enterococcus faecalis): 8 µM
MIC (Escherichia coli): 32 µM
MIC (Pseudomonas aeruginosa): 63 µM

CCCCCCCCCC[N+](C)(C)CCCCC[N+](C)(C)CCCCCCCCCC
MIC (Staphylococcus aureus): 2 µM
MIC (Enterococcus faecalis): 4 µM
MIC (Escherichia coli): 8 µM
MIC (Pseudomonas aeruginosa): 63 µM
